Results as given in US20250214991A1 (Oncopia Therapeutics, Inc. d/b/a/ SK Life Science Labs, priority 2022, published 2025).

Tests used:
CRBN/DDB1 = CRBN/DDB1 (Homo sapiens (Human), UniProt Q96SW2); assay: IC50 measurements for binding to CRBN/DDB1 (HTRF); conditions: His tagged CRBN+DDB, Cy5-labeled Thalidomide probe, one hour
Procedure, shortened: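 HTRF competition binding with 2 nM His-tagged CRBN-DDB1 complex, 60 nM Cy5-thalidomide probe and 0.4 nM anti-His Tb cryptate in 50 mM HEPES pH 7.5, 1 mM TCEP, 0.01% Brij-35, 50 mM NaCl, 0.1% BSA. Read after 1 h at room temperature; IC50 from four-parameter dose-response fit.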

IKZF2 = IKZF2 (Homo sapiens (Human), UniProt Q96SW2+Q9UKS7); assay: In vitro IKZF2 HiBit Assay (HEK293T Flp-in-HiBiT cells); assay type: cell-based; conditions: HEK293T Flp-in-HiBiT cells, 6 hrs incubation; for DC50: read-out: IKZF2 HiBit DC50; for Dmax: HEK-293T, read-out: IKZF2 HiBit Dmax (%)
Procedure, shortened: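 HEK293T Flp-in cells carrying an endogenous N-terminal HiBiT tag on IKZF2 were exposed to compound for 6 h at 0.1% DMSO. The dilution series was 11 doses at 3-fold, diluted from 1 mM. Nano-Glo HiBiT lytic luminescence, normalized to DMSO, gave DC50 for 50% degradation and Dmax across the concentration range, both reported in letter bins.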

IKZF1 = IKZF1 (Homo sapiens (Human), UniProt Q13422+Q96SW2); assay: In vitro IKZF1 HiBit Assay (HEK293T Flp-in-HiBiT-IKZF1 stable cell line); assay type: cell-based; conditions: HEK293T Flp-in-HiBiT-IKZF1 stable cell line, 6 hrs incubation; for DC50: read-out: IKZF1 HiBit DC50; for Dmax: HEK-293T, read-out: IKZF1 HiBit Dmax (%)
Procedure, shortened: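 HEK293T Flp-in cells carrying N-terminal HiBiT-tagged IKZF1 were exposed to compound (0.1% DMSO) for 6 h at 3000 cells/well. HiBiT luminescence was read after lytic LgBiT detection. DC50 and Dmax were taken from DMSO-normalized dose-response curves.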

CRBN/DDB1, sequence (Q96SW2 whole entry, species assumed): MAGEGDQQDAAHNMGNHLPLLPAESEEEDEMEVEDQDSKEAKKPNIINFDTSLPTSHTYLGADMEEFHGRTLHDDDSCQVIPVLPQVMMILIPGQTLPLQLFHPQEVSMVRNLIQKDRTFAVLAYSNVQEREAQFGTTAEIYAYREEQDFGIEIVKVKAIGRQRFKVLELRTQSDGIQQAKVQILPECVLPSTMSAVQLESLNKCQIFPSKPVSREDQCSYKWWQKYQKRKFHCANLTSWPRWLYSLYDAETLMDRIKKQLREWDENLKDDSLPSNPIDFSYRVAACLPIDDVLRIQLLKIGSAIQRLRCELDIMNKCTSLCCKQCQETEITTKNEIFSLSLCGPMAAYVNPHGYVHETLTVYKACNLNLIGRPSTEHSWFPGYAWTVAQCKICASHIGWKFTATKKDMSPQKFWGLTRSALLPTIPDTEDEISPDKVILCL
CRBN/DDB1, sequence (Q16531 whole entry partner, species assumed): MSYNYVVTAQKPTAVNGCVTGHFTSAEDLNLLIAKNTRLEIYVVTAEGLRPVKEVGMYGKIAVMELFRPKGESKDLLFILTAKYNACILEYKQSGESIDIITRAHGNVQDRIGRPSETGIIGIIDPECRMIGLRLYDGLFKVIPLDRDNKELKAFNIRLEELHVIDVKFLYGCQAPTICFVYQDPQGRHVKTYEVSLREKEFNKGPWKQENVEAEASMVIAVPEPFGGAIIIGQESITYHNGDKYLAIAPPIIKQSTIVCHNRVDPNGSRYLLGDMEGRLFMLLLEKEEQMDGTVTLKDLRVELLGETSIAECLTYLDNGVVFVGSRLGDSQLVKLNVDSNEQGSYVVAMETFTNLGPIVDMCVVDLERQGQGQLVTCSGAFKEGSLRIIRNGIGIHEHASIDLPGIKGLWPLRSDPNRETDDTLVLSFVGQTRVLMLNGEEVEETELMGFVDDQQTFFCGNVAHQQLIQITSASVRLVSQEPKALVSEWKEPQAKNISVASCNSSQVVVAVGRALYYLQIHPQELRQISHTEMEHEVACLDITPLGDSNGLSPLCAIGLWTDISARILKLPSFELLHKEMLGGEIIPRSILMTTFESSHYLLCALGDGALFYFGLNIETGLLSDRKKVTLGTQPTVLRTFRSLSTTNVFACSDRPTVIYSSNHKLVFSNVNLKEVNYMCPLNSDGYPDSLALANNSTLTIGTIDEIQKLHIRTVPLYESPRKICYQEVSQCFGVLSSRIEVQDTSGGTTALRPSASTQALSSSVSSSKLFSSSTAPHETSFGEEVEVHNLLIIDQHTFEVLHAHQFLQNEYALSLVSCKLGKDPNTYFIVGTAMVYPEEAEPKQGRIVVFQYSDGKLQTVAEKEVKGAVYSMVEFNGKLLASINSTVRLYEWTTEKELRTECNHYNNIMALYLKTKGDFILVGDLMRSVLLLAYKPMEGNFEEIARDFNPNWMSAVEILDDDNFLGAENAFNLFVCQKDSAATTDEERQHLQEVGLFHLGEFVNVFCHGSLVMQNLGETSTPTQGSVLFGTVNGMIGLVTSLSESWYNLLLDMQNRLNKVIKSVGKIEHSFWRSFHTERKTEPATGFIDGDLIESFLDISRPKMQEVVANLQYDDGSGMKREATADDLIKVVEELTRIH
IKZF1, sequence (Q13422 whole entry): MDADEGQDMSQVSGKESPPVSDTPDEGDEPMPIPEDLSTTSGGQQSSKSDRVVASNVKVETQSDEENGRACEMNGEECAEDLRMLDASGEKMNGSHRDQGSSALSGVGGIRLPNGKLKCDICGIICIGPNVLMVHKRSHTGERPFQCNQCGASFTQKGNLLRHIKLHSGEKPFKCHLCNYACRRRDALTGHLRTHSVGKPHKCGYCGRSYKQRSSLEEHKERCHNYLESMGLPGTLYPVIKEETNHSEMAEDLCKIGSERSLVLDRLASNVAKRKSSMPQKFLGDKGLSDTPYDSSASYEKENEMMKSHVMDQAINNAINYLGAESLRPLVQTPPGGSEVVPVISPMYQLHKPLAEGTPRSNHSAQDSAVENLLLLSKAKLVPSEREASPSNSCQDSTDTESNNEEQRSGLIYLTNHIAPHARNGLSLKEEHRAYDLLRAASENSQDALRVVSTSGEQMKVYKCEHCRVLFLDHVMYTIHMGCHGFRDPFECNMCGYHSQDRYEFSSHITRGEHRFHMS
IKZF1, sequence (Q96SW2 whole entry): as the sequence (Q96SW2 whole entry, species assumed) above
IKZF1, sequence (Q16531 2-1140 partner): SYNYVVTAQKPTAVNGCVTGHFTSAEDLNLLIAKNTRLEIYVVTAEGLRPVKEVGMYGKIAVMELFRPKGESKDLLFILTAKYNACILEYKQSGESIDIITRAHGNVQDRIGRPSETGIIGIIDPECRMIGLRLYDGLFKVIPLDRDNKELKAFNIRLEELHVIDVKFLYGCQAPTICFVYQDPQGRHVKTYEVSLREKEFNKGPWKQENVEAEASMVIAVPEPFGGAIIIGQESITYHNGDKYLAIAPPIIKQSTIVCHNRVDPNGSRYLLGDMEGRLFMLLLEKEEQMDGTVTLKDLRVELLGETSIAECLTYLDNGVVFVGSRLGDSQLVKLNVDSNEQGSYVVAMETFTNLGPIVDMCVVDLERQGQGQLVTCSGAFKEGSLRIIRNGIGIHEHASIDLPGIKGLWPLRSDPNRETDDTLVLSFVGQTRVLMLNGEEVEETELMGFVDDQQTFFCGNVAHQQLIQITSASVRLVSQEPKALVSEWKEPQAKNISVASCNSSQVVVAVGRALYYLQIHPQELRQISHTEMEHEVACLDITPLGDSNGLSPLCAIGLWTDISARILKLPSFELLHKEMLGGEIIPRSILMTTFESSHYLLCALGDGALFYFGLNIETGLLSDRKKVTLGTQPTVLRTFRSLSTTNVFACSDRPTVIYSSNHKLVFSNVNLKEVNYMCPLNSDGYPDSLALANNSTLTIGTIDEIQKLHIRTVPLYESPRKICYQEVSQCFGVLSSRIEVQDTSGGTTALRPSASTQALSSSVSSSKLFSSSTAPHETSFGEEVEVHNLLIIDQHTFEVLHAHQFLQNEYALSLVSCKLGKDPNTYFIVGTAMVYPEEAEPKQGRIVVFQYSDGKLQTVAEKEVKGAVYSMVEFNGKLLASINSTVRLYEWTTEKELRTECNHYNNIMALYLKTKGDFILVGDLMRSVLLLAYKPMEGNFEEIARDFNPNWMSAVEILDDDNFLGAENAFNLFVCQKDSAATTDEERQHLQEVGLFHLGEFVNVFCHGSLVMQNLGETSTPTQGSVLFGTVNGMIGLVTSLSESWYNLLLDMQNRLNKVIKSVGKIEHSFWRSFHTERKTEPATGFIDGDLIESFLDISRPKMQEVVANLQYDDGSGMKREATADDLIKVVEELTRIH
IKZF2, sequence (Q9UKS7 whole entry): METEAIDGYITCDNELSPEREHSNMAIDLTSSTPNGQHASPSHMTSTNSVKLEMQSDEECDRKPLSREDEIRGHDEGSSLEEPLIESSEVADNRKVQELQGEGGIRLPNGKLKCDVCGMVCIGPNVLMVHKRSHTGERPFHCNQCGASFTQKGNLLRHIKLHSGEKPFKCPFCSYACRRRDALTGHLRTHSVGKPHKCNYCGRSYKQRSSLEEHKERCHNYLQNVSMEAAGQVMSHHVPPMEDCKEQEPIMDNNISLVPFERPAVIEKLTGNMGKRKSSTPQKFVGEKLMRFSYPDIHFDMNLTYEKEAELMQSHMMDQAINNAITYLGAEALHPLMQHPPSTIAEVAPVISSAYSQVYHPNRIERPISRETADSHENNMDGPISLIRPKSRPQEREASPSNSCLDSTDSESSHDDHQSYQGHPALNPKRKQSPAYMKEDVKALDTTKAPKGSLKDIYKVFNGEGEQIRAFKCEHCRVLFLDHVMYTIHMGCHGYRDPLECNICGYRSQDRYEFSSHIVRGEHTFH
IKZF2, sequence (Q96SW2 whole entry): as the sequence (Q96SW2 whole entry, species assumed) above
IKZF2, sequence (Q16531 2-1140 partner): as the sequence (Q16531 2-1140 partner) above

Row | Compound | IC50 (CRBN/DDB1) [nM] | DC50 (IKZF2) [nM] | Dmax (IKZF2) [%] | DC50 (IKZF1) [nM] | Dmax (IKZF1) [%]
1 | CCn1nc(N)c2nc(-c3ccc4c(c3)CN(C3CCC(=O)NC3=O)C4=O)cc(CN3CCCC3)c21 (stereo not shown) [Example 178, 3-(5-(3-amino-1-ethyl-7-(pyrrolidin-1-ylmethyl)-1H-pyrazolo[4,3-b]pyridin-5-yl)-1-oxoisoindolin-2-yl) piperidine-2,6-dione] | 500 to 1000 | 1 to 10 | 60 to 80 | 100 to 1000 | 20 to 40
2 | CN(C)c1n[nH]c2c(CN3CCCC3)cc(-c3ccc4c(c3)CN(C3CCC(=O)NC3=O)C4=O)nc12 (stereo not shown) [Example 179, 3-(5-(3-(dimethylamino)-7-(pyrrolidin-1-ylmethyl)-1H-pyrazolo[4,3-b]pyridin-5-yl)-1-oxoisoindolin-2-yl) piperidine-2,6-dione] | 5000 to 10000 | < 1 | > 80 | 10 to 100 | 40 to 60
3 | Cn1ccc2c(CN3CCCC3)nc(-c3ccc4c(c3)CN(C3CCC(=O)NC3=O)C4=O)nc21 (stereo not shown) [Example 184, 3-(5-(7-methyl-4-(pyrrolidin-1-ylmethyl)-7H-pyrrolo[2,3-d]pyrimidin-2-yl)-1-oxoisoindolin-2-yl) piperidine-2,6-dione] | 500 to 1000 | 1 to 10 | 60 to 80 | 1000 to 10000 | 20 to 40
4 | CS(=O)(=O)C1CCN(Cc2cc(-c3ccc4c(c3)CN(C3CCC(=O)NC3=O)C4=O)nc3c2ccn3C2COC2)CC1 (stereo not shown) [Example 185, 3-(5-(4-((4-(methylsulfonyl)piperidin-1-yl)methyl)-1-(oxetan-3-yl)-1H-pyrrolo[2,3-b]pyridin-6-yl)-1-oxoisoindolin-2-yl) piperidine-2,6-dione] | 500 to 1000 | 100 to 1000 | 40 to 60 | > 10000 | < 20
5 | O=C1CCC(N2Cc3cc(-c4cc(CN5CCC6(CC5)COC6)c5ccn(C6COC6)c5n4)ccc3C2=O)C(=O)N1 (stereo not shown) [Example 188, 3-(5-(4-((2-oxa-7-azaspiro[3.5]nonan-7-yl)methyl)-1-(oxetan-3-yl)-1H-pyrrolo[2,3-b]pyridin-6-yl)-1-oxoisoindolin-2-yl) piperidine-2,6-dione] | 500 to 1000 | 1 to 10 | 60 to 80 | > 10000 | < 20
6 | CN(C)C1CCN(Cc2cc(-c3ccc4c(c3)CN(C3CCC(=O)NC3=O)C4=O)nc3c2ccn3C2COC2)CC1 (stereo not shown) [Example 190, 3-(5-(4-((4-(dimethylamino)piperidin-1-yl)methyl)-1-(oxetan-3-yl)-1H-pyrrolo[2,3-b]pyridin-6-yl)-1-oxoisoindolin-2-yl) piperidine-2,6-dione] | 100 to 500 | 10 to 100 | 40 to 60 | > 10000 | < 20
7 | O=C1CCC(N2Cc3cc(-c4cc(CN5CC6COCC(C6)C5)c5ccn(C6COC6)c5n4)ccc3C2=O)C(=O)N1 (stereo not shown) [Example 191, 3-(5-(4-((3-oxa-7-azabicyclo[3.3.1]nonan-7-yl)methyl)-1-(oxetan-3-yl)-1H-pyrrolo[2,3-b]pyridin-6-yl)-1-oxoisoindolin-2-yl) piperidine-2,6-dione] | 1000 to 5000 | 1 to 10 | 60 to 80 | > 10000 | < 20
8 | N#CC1CCN(Cc2cc(-c3ccc4c(c3)CN(C3CCC(=O)NC3=O)C4=O)nc3c2ccn3C2COC2)CC1 (stereo not shown) [Example 192, 1-((6-(2-(2,6-dioxopiperidin-3-yl)-1-oxoisoindolin-5-yl)-1-(oxetan-3-yl)-1H-pyrrolo[2,3-b]pyridin-4-yl)methyl) piperidine-4-carbonitrile] | 1000 to 5000 | 10 to 100 | 60 to 80 | > 10000 | < 20
9 | Cc1nc2nc(-c3ccc4c(c3)CN(C3CCC(=O)NC3=O)C4=O)cc(CN3CCCC3)c2o1 (stereo not shown) [Example 194, 3-(5-(2-methyl-7-(pyrrolidin-1-ylmethyl)oxazolo[4,5-b]pyridin-5-yl)-1-oxoisoindolin-2-yl) piperidine-2,6-dione] | 1000 to 5000 | 1 to 10 | > 80 | > 10000 | < 20
10 | Cc1cc(-c2ccc3c(c2)CN(C2CCC(=O)NC2=O)C3=O)nc2nc(CN3CCCC3)oc12 (stereo not shown) [Example 195, 3-(5-(7-methyl-2-(pyrrolidin-1-ylmethyl)oxazolo[4,5-b]pyridin-5-yl)-1-oxoisoindolin-2-yl) piperidine-2,6-dione] | 1000 to 5000 | 10 to 100 | 60 to 80 | > 10000 | < 20
11 | Nc1n[nH]c2c(CN3CCC(O)C3)cc(-c3ccc4c(c3)CN(C3CCC(=O)NC3=O)C4=O)nc12 (stereo not shown) [Example 196, 3-(5-(3-amino-7-((3-hydroxypyrrolidin-1-yl)methyl)-1H-pyrazolo[4,3-b]pyridin-5-yl)-1-oxoisoindolin-2-yl) piperidine-2,6-dione] | 1000 to 5000 | 100 to 1000 | 40 to 60 | > 10000 | < 20
12 | Cc1nc2c(CN3CCCC3)cc(-c3ccc4c(c3)CN(C3CCC(=O)NC3=O)C4=O)nc2o1 (stereo not shown) [Example 197, 3-(5-(2-methyl-7-(pyrrolidin-1-ylmethyl)oxazolo [5,4-b]pyridin-5-yl)-1-oxoisoindolin-2-yl) piperidine-2,6-dione] | 500 to 1000 | 1 to 10 | 60 to 80 | > 10000 | < 20
13 | O=C1CCC(N2Cc3cc(-c4cc(CN5CCCC5)c5c(n4)NC(=O)C5)ccc3C2=O)C(=O)N1 (stereo not shown) [Example 200, 3-(1-oxo-5-(2-oxo-4-(pyrrolidin-1-ylmethyl)-2,3-dihydro-1H-pyrrolo[2,3-b]pyridin-6-yl)isoindolin-2-yl) piperidine-2,6-dione] | 100 to 500 | 100 to 1000 | 60 to 80 | 100 to 1000 | 20 to 40
14 | Nc1n[nH]c2c(CN3CCC(F)C3)cc(-c3ccc4c(c3)CN(C3CCC(=O)NC3=O)C4=O)nc12 (stereo not shown) [Example 201, 3-(5-(3-amino-7-((3-fluoropyrrolidin-1-yl)methyl)-1H-pyrazolo[4,3-b]pyridin-5-yl)-1-oxoisoindolin-2-yl) piperidine-2,6-dione] | 500 to 1000 | 10 to 100 | 60 to 80 | 1000 to 10000 | 20 to 40
15 | O=C1CCC(N2Cc3cc(-c4cc(CN5CCCC5)c5[nH]nc(NC6COC6)c5n4)ccc3C2=O)C(=O)N1 (stereo not shown) [Example 204, 3-(5-(3-(oxetan-3-ylamino)-7-(pyrrolidin-1-ylmethyl)-1H-pyrazolo[4,3-b]pyridin-5-yl)-1-oxoisoindolin-2-yl) piperidine-2,6-dione] | 1000 to 5000 | 1000 to 10000 | < 20 | > 10000 | < 20
16 | Nc1n[nH]c2c(CN3CC(F)C3)cc(-c3ccc4c(c3)CN(C3CCC(=O)NC3=O)C4=O)nc12 (stereo not shown) [Example 207, 3-(5-(3-amino-7-((3-fluoroazetidin-1-yl)methyl)-1H-pyrazolo[4,3-b]pyridin-5-yl)-1-oxoisoindolin-2-yl) piperidine-2,6-dione] | 100 to 500 | 10 to 100 | 60 to 80 | > 10000 | < 20
17 | Nc1n[nH]c2c(CN3CCC3)cc(-c3ccc4c(c3)CN(C3CCC(=O)NC3=O)C4=O)nc12 (stereo not shown) [Example 208, 3-(5-(3-amino-7-(azetidin-1-ylmethyl)-1H-pyrazolo[4,3-b]pyridin-5-yl)-1-oxoisoindolin-2-yl) piperidine-2,6-dione] | < 100 | 100 to 1000 | 60 to 80 | > 10000 | < 20
18 | Nc1n[nH]c2c(CN3CC(O)C3)cc(-c3ccc4c(c3)CN(C3CCC(=O)NC3=O)C4=O)nc12 (stereo not shown) [Example 213, 3-(5-(3-amino-7-((3-hydroxyazetidin-1-yl)methyl)-1H-pyrazolo[4,3-b]pyridin-5-yl)-1-oxoisoindolin-2-yl) piperidine-2,6-dione] | 100 to 500 | 100 to 1000 | 40 to 60 | 1 to 10 | 20 to 40
19 | Nc1n[nH]c2c(CN3CC4COCC4C3)cc(-c3ccc4c(c3)CN(C3CCC(=O)NC3=O)C4=O)nc12 (stereo not shown) [Example 214, 3-(5-(3-amino-7-((tetrahydro-1H-furo[3,4-c]pyrrol-5 (3H)-yl)methyl)-1H-pyrazolo[4,3-b]pyridin-5-yl)-1-oxoisoindolin-2-yl) piperidine-2,6-dione] | 100 to 500 | 100 to 1000 | 60 to 80 | > 10000 | < 20
20 | O=C1CCC(N2Cc3cc(-c4nc(CN5CCCC5)c5ccn(C6CCC6)c5n4)ccc3C2=O)C(=O)N1 (stereo not shown) [Example 217, 3-(5-(7-cyclobutyl-4-(pyrrolidin-1-ylmethyl)-7H-pyrrolo[2,3-d]pyrimidin-2-yl)-1-oxoisoindolin-2-yl) piperidine-2,6-dione] | 500 to 1000 | 1 to 10 | 60 to 80 | > 10000 | < 20
